Holding throughout (assay): relative viability (nuclei count vs DMSO), 5 days (fraction); higher = more cells survive
Compound in the experiment “Midostaurin + Foretinib”: CO[C@@H]1[C@H](N(C)C(=O)c2ccccc2)C[C@H]2O[C@]1(C)n1c3ccccc3c3c4c(c5c6ccccc6n2c5c31)C(=O)NC4 [Midostaurin] + COc1cc2c(Oc3ccc(NC(=O)C4(C(=O)Nc5ccc(F)cc5)CC4)cc3F)ccnc2cc1OCCCN1CCOCC1 [Foretinib] (partner 0.25 µM)
Put shortly:
(§1)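 Lung cancer cell lines were seeded in 1536-well plates and dosed by pin tool the next day, with either a single drug or a fixed anchor-drug dose combined with five library-drug doses (not always all listed) spaced in √10 steps. Five days later, one step fixed the cells and stained their nuclei (final 0.05% Triton X-100, 1% formaldehyde, 1 ug/ml Hoechst), and nuclei were counted on 4× images. Relative viability is the nuclei count in treated wells divided by the count in vehicle wells, and each value is the median of duplicate plates.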

Compound in experiment [1]: COc1cc(-c2nn([C@H]3CC[C@H](N4CCN(C(C)=O)CC4)CC3)c3ncnc(N)c23)ccc1NC(=O)c1cc2ccccc2n1C + Nc1ncn([C@H]2C[C@H](O)[C@@H](CO)O2)c(=O)n1 [Decitabine] (partner 2 µM)
Put shortly:
as §1

Compound in experiment [2]: COc1cc(-c2nn([C@H]3CC[C@H](N4CCN(C(C)=O)CC4)CC3)c3ncnc(N)c23)ccc1NC(=O)c1cc2ccccc2n1C + O=C(c1cc(Cc2n[nH]c(=O)c3ccccc23)ccc1F)N1CCN(C(=O)C2CC2)CC1 [Olaparib] (partner 8 µM)
Put shortly:
as §1

Compound in experiment [3]: COc1cc(-c2nn([C@H]3CC[C@H](N4CCN(C(C)=O)CC4)CC3)c3ncnc(N)c23)ccc1NC(=O)c1cc2ccccc2n1C + Cc1cc(Nc2cc(N3CCN(C)CC3)nc(Sc3ccc(NC(=O)C4CC4)cc3)n2)n[nH]1 [Tozasertib] (partner 0.1 µM)
Put shortly: as §1

Compound in experiment [4]: COc1cc(-c2nn([C@H]3CC[C@H](N4CCN(C(C)=O)CC4)CC3)c3ncnc(N)c23)ccc1NC(=O)c1cc2ccccc2n1C + O=C(CCCCCCC(=O)Nc1ccccc1)NO [Vorinostat] (partner 1 µM)
Put shortly: as §1

For seven cell lines, relative viability results are on record in the supplement of paper PMC10307832.

For the cell line H3255, the relative viability with Midostaurin + Foretinib (first compound 0.01 µM) came to 0.894; in the experiment with Midostaurin + Foretinib (first compound 0.03162 µM), 0.793; in the experiment with Midostaurin + Foretinib (first compound 0.1 µM) it was 0.833; in the experiment with Midostaurin + Foretinib (first compound 0.3162 µM), 0.959; in experiment [1] (first compound 0.0128 µM), 0.617; in experiment [1] (first compound 0.04048 µM), 0.504. Moreover, the relative viability in experiment [1] (first compound 0.128 µM) amounted to 0.609; in experiment [1] (first compound 1.28 µM) it was 0.472; in experiment [2] (first compound 0.0128 µM), 0.616; in experiment [2] (first compound 0.04048 µM), 0.579; in experiment [2] (first compound 0.128 µM) it was 0.558; in experiment [2] (first compound 1.28 µM), 0.491. Moreover, the relative viability in experiment [3] (first compound 0.0128 µM) was 0.829; in experiment [3] (first compound 0.04048 µM) it was 0.591; in experiment [3] (first compound 0.128 µM) it was 0.571; in experiment [3] (first compound 1.28 µM), 0.581; in experiment [4] (first compound 0.0128 µM), 1.01; in experiment [4] (first compound 0.04048 µM), 0.725. Moreover, the relative viability in experiment [4] (first compound 0.128 µM) amounted to 0.824; in experiment [4] (first compound 1.28 µM), 0.708.
With NCI-H1993, the relative viability amounted to 0.863 in the experiment with Midostaurin + Foretinib (first compound 0.01 µM); 0.761 with Midostaurin + Foretinib (first compound 0.03162 µM); 0.765 with Midostaurin + Foretinib (first compound 0.1 µM); 0.935 with Midostaurin + Foretinib (first compound 0.3162 µM); 0.632 in experiment [1] (first compound 0.0128 µM); 0.575 in experiment [1] (first compound 0.04048 µM). The relative viability in experiment [1] (first compound 0.128 µM) came out at 0.681; in experiment [1] (first compound 1.28 µM), 0.617; in experiment [2] (first compound 0.0128 µM) it was 0.997; in experiment [2] (first compound 0.04048 µM), 1.11; in experiment [2] (first compound 0.128 µM), 0.885; in experiment [2] (first compound 1.28 µM), 0.891. Also, the relative viability in experiment [3] (first compound 0.0128 µM) amounted to 0.568; in experiment [3] (first compound 0.04048 µM) it was 0.534; in experiment [3] (first compound 0.128 µM) it was 0.56; in experiment [3] (first compound 1.28 µM), 0.546; in experiment [4] (first compound 0.0128 µM), 0.916; in experiment [4] (first compound 0.04048 µM) it was 0.682. In addition, the relative viability in experiment [4] (first compound 0.128 µM) turned out to be 0.957; in experiment [4] (first compound 1.28 µM), 0.726.
With NCI-H1734, the relative viability amounted to 0.878 with Midostaurin + Foretinib (first compound 0.01 µM); 0.739 with Midostaurin + Foretinib (first compound 0.03162 µM); 0.866 with Midostaurin + Foretinib (first compound 0.1 µM); 0.679 with Midostaurin + Foretinib (first compound 0.3162 µM); 0.521 in experiment [1] (first compound 0.0128 µM); 0.468 in experiment [1] (first compound 0.04048 µM). Moreover, the relative viability in experiment [1] (first compound 0.128 µM) came to 0.516; in experiment [1] (first compound 1.28 µM), 0.479; in experiment [2] (first compound 0.0128 µM) it was 0.621; in experiment [2] (first compound 0.04048 µM), 0.562; in experiment [2] (first compound 0.128 µM) it was 0.649; in experiment [2] (first compound 1.28 µM) it was 0.539. Further, the relative viability in experiment [3] (first compound 0.0128 µM) was 0.293; in experiment [3] (first compound 0.04048 µM) it was 0.234; in experiment [3] (first compound 0.128 µM) it was 0.253; in experiment [3] (first compound 1.28 µM) it was 0.201; in experiment [4] (first compound 0.0128 µM) it was 0.873; in experiment [4] (first compound 0.04048 µM), 0.787. For the same cell line, the relative viability in experiment [4] (first compound 0.128 µM) was 0.783; in experiment [4] (first compound 1.28 µM), 0.852.
For HOP-62, the relative viability was 1.14 in the experiment with Midostaurin + Foretinib (first compound 0.01 µM); 1.04 with Midostaurin + Foretinib (first compound 0.03162 µM); 1.16 in the experiment with Midostaurin + Foretinib (first compound 0.1 µM); 1.2 in the experiment with Midostaurin + Foretinib (first compound 0.3162 µM); 0.241 in experiment [1] (first compound 0.0128 µM); 0.191 in experiment [1] (first compound 0.04048 µM). Moreover, the relative viability in experiment [1] (first compound 0.128 µM) worked out at 0.207; in experiment [1] (first compound 1.28 µM), 0.283; in experiment [2] (first compound 0.0128 µM) it was 0.657; in experiment [2] (first compound 0.04048 µM), 0.533; in experiment [2] (first compound 0.128 µM), 0.366; in experiment [2] (first compound 1.28 µM) it was 0.478. For the same cell line, the relative viability was found to be 0.382 in experiment [3] (first compound 0.0128 µM); 0.41 in experiment [3] (first compound 0.04048 µM); 0.346 in experiment [3] (first compound 0.128 µM); 0.368 in experiment [3] (first compound 1.28 µM); 1.01 in experiment [4] (first compound 0.0128 µM); 0.546 in experiment [4] (first compound 0.04048 µM). Besides, the relative viability came to 0.601 in experiment [4] (first compound 0.128 µM) and 0.585 in experiment [4] (first compound 1.28 µM).
In the case of LOU-NH91, the relative viability in the experiment with Midostaurin + Foretinib (first compound 0.01 µM) was determined as 0.976; with Midostaurin + Foretinib (first compound 0.03162 µM), 0.903; with Midostaurin + Foretinib (first compound 0.1 µM) it was 1.01; with Midostaurin + Foretinib (first compound 0.3162 µM) it was 1.01; in experiment [1] (first compound 0.0128 µM) it was 0.792; in experiment [1] (first compound 0.04048 µM), 0.898. The relative viability in experiment [1] (first compound 0.128 µM) came to 0.842; in experiment [1] (first compound 1.28 µM) it was 0.804; in experiment [2] (first compound 0.0128 µM), 0.924; in experiment [2] (first compound 0.04048 µM), 1.01; in experiment [2] (first compound 0.128 µM), 0.902; in experiment [2] (first compound 1.28 µM) it was 0.831. The relative viability in experiment [3] (first compound 0.0128 µM) came to 0.664; in experiment [3] (first compound 0.04048 µM) it was 0.598; in experiment [3] (first compound 0.128 µM) it was 0.699; in experiment [3] (first compound 1.28 µM) it was 0.671; in experiment [4] (first compound 0.0128 µM) it was 0.987; in experiment [4] (first compound 0.04048 µM), 0.921. The relative viability in experiment [4] (first compound 0.128 µM) worked out at 0.909; in experiment [4] (first compound 1.28 µM), 0.858.
For the cell line ChaGo-K-1, the relative viability with Midostaurin + Foretinib (first compound 0.01 µM) was 0.888; in the experiment with Midostaurin + Foretinib (first compound 0.03162 µM), 0.99; with Midostaurin + Foretinib (first compound 0.1 µM) it was 0.785; in the experiment with Midostaurin + Foretinib (first compound 0.3162 µM), 0.946; in experiment [1] (first compound 0.0128 µM), 0.493; in experiment [1] (first compound 0.04048 µM), 0.513. The relative viability in experiment [1] (first compound 0.128 µM) worked out at 0.497; in experiment [1] (first compound 1.28 µM), 0.508; in experiment [2] (first compound 0.0128 µM), 0.488; in experiment [2] (first compound 0.04048 µM), 0.452; in experiment [2] (first compound 0.128 µM), 0.409; in experiment [2] (first compound 1.28 µM), 0.328. Besides, the relative viability in experiment [3] (first compound 0.0128 µM) turned out to be 0.215; in experiment [3] (first compound 0.04048 µM), 0.218; in experiment [3] (first compound 0.128 µM) it was 0.211; in experiment [3] (first compound 1.28 µM), 0.195; in experiment [4] (first compound 0.0128 µM), 0.802; in experiment [4] (first compound 0.04048 µM), 0.768. Further, the relative viability in experiment [4] (first compound 0.128 µM) turned out to be 0.679; in experiment [4] (first compound 1.28 µM), 0.555.
In the case of PC-14, the relative viability with Midostaurin + Foretinib (first compound 0.01 µM) was found to be 0.984; with Midostaurin + Foretinib (first compound 0.03162 µM), 0.924; with Midostaurin + Foretinib (first compound 0.1 µM), 0.909; with Midostaurin + Foretinib (first compound 0.3162 µM), 0.899; in experiment [1] (first compound 0.0128 µM), 0.203; in experiment [1] (first compound 0.04048 µM), 0.186. For the same cell line, the relative viability in experiment [1] (first compound 0.128 µM) came to 0.216; in experiment [1] (first compound 1.28 µM), 0.326; in experiment [2] (first compound 0.0128 µM), 0.231; in experiment [2] (first compound 0.04048 µM), 0.349; in experiment [2] (first compound 0.128 µM), 0.283; in experiment [2] (first compound 1.28 µM) it was 0.343. Besides, the relative viability was 0.562 in experiment [3] (first compound 0.0128 µM); 0.688 in experiment [3] (first compound 0.04048 µM); 0.559 in experiment [3] (first compound 0.128 µM); 0.636 in experiment [3] (first compound 1.28 µM); 0.931 in experiment [4] (first compound 0.0128 µM); 0.823 in experiment [4] (first compound 0.04048 µM). Also, the relative viability in experiment [4] (first compound 0.128 µM) is 0.653; in experiment [4] (first compound 1.28 µM), 0.716.
